According to ChEMBL document CHEMBL1177693, “Antimalarials from nature” (Bioorg Med Chem, 2009):
In brackets after ≈: the same amount, converted by molar mass.

Each molecule was assayed on Plasmodium falciparum (assay: Antimalarial activity against Plasmodium falciparum). Conditions: not given.
Format: functional, organism-based

| Structure (SMILES) | fold change (FC) |
| --- | --- |
| C=C(COCc1ccc(Br)cc1)[C@@H]1CC[C@]2(C)CC[C@]3(C)[C@H](CC[C@@H]4[C@@]5(C)CC[C@H](OC(=O)CCCCCCC(N)=O)C(C)(C)[C@@H]5CC[C@]43C)[C@@H]12 | 7 |

Same assay, conditions: Plasmodium falciparum

| IC50 | Structure (SMILES) | EC50 |
| --- | --- | --- |
| 4.3 µg/mL | CC1=CC(=O)C[C@@H]2[C@@](C)(CC[C@H](C)CC(=O)O)[C@H](C)C(=O)C[C@@]12C |  |
| 5.64 µM | COc1cc(O)c(C(=O)CCc2ccccc2)c(O)c1[C@H]1C=C(C)CC[C@@H]1C(C)C |  |
| 5.9 µg/mL | C=C1C2CC[C@@]3(C)[C@H](c4ccoc4)OC(=O)C[C@]13O[C@H]1CC(=O)C(C)(C)[C@H](CC(=O)OC)[C@@]21C |  |
| 0.54 µg/mL | C=C1C(=O)[C@@]23CC[C@H]4[C@@]5(C)CCC[C@@]4(OC5=O)[C@@]2(C)CC[C@]1(OC)C3 |  |
| 1.79 µg/mL | CC(=O)Oc1cc(C)c(OC(C)=O)c2c1[nH]c1ccccc12 |  |
| 4.3 µg/mL | C=C1CC[C@@H]2[C@@](C)(COC(=O)/C=C/c3ccc(O)cc3)CCC[C@@]2(C)[C@@H]1CC[C@H](C)CC(=O)O |  |
| 0.67 µg/mL | C=C1C(=O)[C@@]23CC[C@H]4[C@@]5(C)CCC[C@@]4(OC5=O)[C@@]2(C)CC[C@]1(O)C3 |  |
| 0.061 µg/mL | C/C=C(\C)C(=O)O[C@@H]1[C@H]2C(C)=CC(=O)[C@@H](O)[C@]2(C)[C@H]2[C@]3(O)OC[C@@]24[C@@H]1OC(=O)C[C@H]4[C@@H](C)[C@H]3O |  |
| 24.3 µg/mL | CC(=O)O[C@@H]1C(=O)c2c(O)cc(O)cc2O[C@@H]1c1ccc(O)cc1 |  |
| 1.8 µg/mL | C=C(C)C(=O)O[C@H]1C[C@H](C)C2=CC(=O)[C@](C)(/C=C3/OC(=O)C(COC(C)=O)=C31)O2 |  |
| 1.1 µg/mL | C=C[C@@]12COC(=O)C(=C)[C@@H]1[C@H]1OC(=O)[C@@H](C)[C@@H]1[C@@H](OC(=O)C(=C)CO)C2 |  |
| 4.97 µM | COC(=O)/C(=C/C[C@H]1[C@@]2(CC[C@H]3C(C)(C)CCC[C@@]31C)CO2)C1CO1 (stereo partly specified) |  |
| 1.2 µg/mL | C=C(C)C(=O)O[C@@H]1C[C@@]2(C)OC(=CC2=O)/C(CO)=C\[C@H]2OC(=O)C(=C)[C@@H]21 |  |
| 3.36 µM | CC1(C)C=Cc2c(ccc(C(=O)/C=C/c3ccc(O)cc3)c2O)O1 |  |

Continued, molecule first:

| Structure (SMILES) | IC50 | EC50 |
| --- | --- | --- |
| C[C@@H]1CC[C@H]2C(C)(C)[C@H](O)CC[C@]2(C)[C@@]12Cc1c(O)cc3c(c1O2)COC3=O | 0.15 µg/mL |  |
| C[C@@H]1CC[C@H]2C(C)(C)[C@H](O)CC[C@]2(C)[C@@]12Cc1c(O)cc(C=O)c(C=O)c1O2 | 0.85 µg/mL |  |
| CO[C@H]1[C@@H](O)[C@H](O[C@H]2[C@@H](OC)C[C@H](O[C@H]3[C@@H](OC)C[C@@H](O[C@H]4CC[C@@]5(C)C(=CC[C@@H]6[C@@H]5C[C@@H](OC(=O)c5ccccc5)[C@]5(C)[C@@H]([C@H](C)OC(C)=O)CC[C@]65O)C4)O[C@@H]3C)O[C@@H]2C)O[C@H](C)[C@H]1O | 6.25 µg/mL |  |
| C=C1C(=O)[C@@]23CC[C@H]4[C@@]5(C)CCC[C@@]4(OC5=O)[C@@]2(C)CC[C@@H]1C3 | 1.57 µg/mL |  |
| C/C1=C\[C@H]2O[C@](C)(CC[C@@H]2[C@@]2(C)CO2)[C@@H](O)CC/C(C)=C/CC1 | 15 µg/mL |  |
| C[C@H]1[C@H](O)CCC2=CC(=O)[C@@]3([C@@]4(CO)CO4)O[C@@H]3[C@@]21C |  | 0.5 µg/mL (≈ 1.78 µM) |
| O=C1c2ccc(O)cc2O[C@H](c2ccc(O)cc2)[C@H]1[C@@H]1C(=O)c2ccc(O)cc2O[C@H]1c1ccc(O)cc1 | 6.7 µM |  |
| C=C(CO)[C@@]12O[C@@H]1[C@@]1(C)C(=CC2=O)CC[C@@H](O)[C@@H]1C |  | 0.32 µg/mL (≈ 1.21 µM) |
| C=C1C(=O)O[C@@H]2/C=C(/CO)C3=CC(=O)[C@@](C)(C[C@@H](OC(=O)/C(C)=C\C)[C@@H]12)O3 | 0.3 µg/mL |  |
| Cc1cc(O)c2c(c1)[C@@H]([C@H]1O[C@H](OC(=O)c3ccccc3)[C@@H](O)[C@@H](O)[C@@H]1O)c1cccc(O)c1C2=O | 2.4 µM |  |
| CC1(C)CC[C@]2(C(=O)O)CC[C@]3(C)C(=CC[C@@H]4[C@@]5(C)CC[C@@H](O)C(C)(C)[C@@H]5CC[C@]43C)[C@@H]2C1 | 28.3 µM |  |
